The target in one assay is T1, STAT1 (Homo sapiens, UniProt P42224).
T1 sequence (P42224 1-750): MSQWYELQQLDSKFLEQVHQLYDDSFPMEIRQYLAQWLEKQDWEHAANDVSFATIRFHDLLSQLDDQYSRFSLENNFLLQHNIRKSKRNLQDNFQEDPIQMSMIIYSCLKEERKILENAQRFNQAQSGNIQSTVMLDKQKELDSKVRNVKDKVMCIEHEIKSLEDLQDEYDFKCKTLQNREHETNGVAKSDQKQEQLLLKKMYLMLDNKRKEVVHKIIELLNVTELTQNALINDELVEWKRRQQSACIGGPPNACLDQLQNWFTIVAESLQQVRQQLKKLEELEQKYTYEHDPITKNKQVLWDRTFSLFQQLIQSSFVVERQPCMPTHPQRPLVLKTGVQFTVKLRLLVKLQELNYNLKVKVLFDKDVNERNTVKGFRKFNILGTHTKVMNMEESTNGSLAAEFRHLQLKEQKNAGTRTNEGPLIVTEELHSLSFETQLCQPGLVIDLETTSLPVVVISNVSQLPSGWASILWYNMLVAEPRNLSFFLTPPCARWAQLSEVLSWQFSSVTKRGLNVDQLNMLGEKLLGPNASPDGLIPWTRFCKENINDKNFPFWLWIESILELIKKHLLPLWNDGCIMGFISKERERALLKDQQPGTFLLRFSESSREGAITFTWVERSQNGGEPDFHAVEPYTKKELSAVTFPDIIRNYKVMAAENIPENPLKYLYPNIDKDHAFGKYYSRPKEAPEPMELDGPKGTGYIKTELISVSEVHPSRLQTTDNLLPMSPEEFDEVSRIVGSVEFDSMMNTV
Nature of the assay: Competitive fluorescence polarization (FP) binding assay, STAT1. The note with it: for IC50: 2 % DMSO for 5, 10 % DMSO for 10; for Ki: Ki calculated from IC50, 2 % DMSO for 5, 10 % DMSO for 10. Here is the method:
(§1) Fluorescence polarization assays: Competitive binding assays based on fluorescence polarization were carried out essentially as previously described.[[4a]] Unless stated otherwise, final concentrations of the buffer components were: 10 mM Tris (pH 8.0), 50 mM NaCl, 1 mM EDTA, 1 mM DTT, 0.1 % (v/v) Nonidet P‐40 substitute, and 2 % DMSO. Proteins were used at concentrations which reflect the Kd values of the interactions between the fluoropeptide and the protein preparations. Protein concentrations used for activity analysis of compound 5 were 91 nM for STAT1, 107 nM for STAT3, 28 nM for STAT4, 122 nM for STAT5a, 56 nM for STAT5b and 101 nM for STAT6. Protein concentrations used for activity analysis of AC‐4‐130 were 103 nM for STAT5a and 62 nM for STAT5b. […] Final concentration of all fluorescent‐labelled peptides was 10 nM. The following peptides were used in assays: 5‐carboxyfluorescein‐GpYDKPHVL for STAT1; 5‐carboxyfluorescein‐GpYLPQTV‐NH2 for STAT3; 5‐carboxyfluorescein‐GpYLPQNID for STAT4; 5‐carboxyfluorescein‐GpYLVLDKW for STAT5a/5b, and 5‐carboxyfluorescein‐GpYVPWQDLI for STAT6. Protein and test compounds were incubated for 1 h prior to addition of the fluorescein‐labeled peptide. Fluorescence polarization was measured after another 60 min using an Infinite F500 plate reader (Tecan). IC50 values were converted to Ki‐values using the published equation.[13]

The next assay concerns the target T2, STAT5a (Homo sapiens, UniProt P42229).
T2 sequence (P42229 1-794): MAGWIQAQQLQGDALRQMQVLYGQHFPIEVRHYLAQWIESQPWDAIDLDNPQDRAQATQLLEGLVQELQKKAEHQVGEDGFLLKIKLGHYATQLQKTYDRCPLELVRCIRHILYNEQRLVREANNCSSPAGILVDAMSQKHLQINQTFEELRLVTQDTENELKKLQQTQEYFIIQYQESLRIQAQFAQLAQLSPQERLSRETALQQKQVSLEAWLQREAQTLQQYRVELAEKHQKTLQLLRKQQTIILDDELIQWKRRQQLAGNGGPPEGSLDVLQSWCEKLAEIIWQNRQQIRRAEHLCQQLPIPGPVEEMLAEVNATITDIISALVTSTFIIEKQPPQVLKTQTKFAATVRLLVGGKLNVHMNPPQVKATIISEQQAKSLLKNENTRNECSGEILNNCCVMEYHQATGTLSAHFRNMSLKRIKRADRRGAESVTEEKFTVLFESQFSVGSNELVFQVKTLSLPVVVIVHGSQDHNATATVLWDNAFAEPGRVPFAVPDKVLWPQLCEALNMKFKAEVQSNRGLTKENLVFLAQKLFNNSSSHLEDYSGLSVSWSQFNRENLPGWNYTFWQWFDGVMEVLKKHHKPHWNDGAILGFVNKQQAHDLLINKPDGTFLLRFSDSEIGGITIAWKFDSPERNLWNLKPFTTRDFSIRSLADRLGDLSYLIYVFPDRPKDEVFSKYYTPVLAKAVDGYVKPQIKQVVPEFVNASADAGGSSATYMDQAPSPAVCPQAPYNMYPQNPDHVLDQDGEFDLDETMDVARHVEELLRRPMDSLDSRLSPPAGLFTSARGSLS
Nature of the assay: Competitive fluorescence polarization (FP) binding assay, STAT5a SH2 domain. The note with it: for Ki / IC50: FP assay, 2 % DMSO (10 % DMSO for 10); for Ki: Ki calculated from IC50 (n=3) via published equation; for IC50: n=3 unless stated. Here is the method: as §1

Each structure is given as a SMILES string.

We go through 2 compounds from paper PMC10099813, “Stafiba: A STAT5‐Selective Small‐Molecule Inhibitor” (Chembiochem, 2022).

On to `O=C(CNc1ccc(C(=O)Nc2ccc(Oc3ccccc3)cc2)cc1)NCc1cc(C(F)(F)P(=O)(O)O)c(F)c(C(F)(F)P(=O)(O)O)c1` [compound 10], for which the IC50 (in general, the concentration that gives 50% inhibition) amounted to 53.8 ± 1.6 µM on STAT1 and 6.2 ± 0.7 µM on STAT5a. Further, the Ki – broadly, a dissociation constant, usually derived from enzyme kinetics or from competition with a known ligand – is 26 ± 0.8 µM on STAT1 and 3 ± 0.4 µM on STAT5a. The “activity compared with AC-4-130 in FP assay against the SH2 domain of STAT5a” value on STAT5a (Figure 5C) was “substantially more active than AC‐4‐130”.

In the case of `O=C(CNc1ccc(C(=O)Nc2ccc(Oc3ccccc3)cc2)cc1)NCc1cc(OP(=O)(O)O)cc(OP(=O)(O)O)c1` [compound 5], on STAT1, the IC50 was determined as 70.4 ± 3.1 µM and the Ki is 34.6 ± 1.5 µM. Further, on STAT5a, the Ki is 3.1 ± 0.1 µM and the concentration for half-maximal inhibition (IC50) was 6.4 ± 0.2 µM.
